SMILES strings stand for the structures.

In this experiment the target is T1, human CB2R (Homo sapiens, UniProt P34972).
T1 construct: host or cells: CHO cells
T1 sequence (P34972 whole entry): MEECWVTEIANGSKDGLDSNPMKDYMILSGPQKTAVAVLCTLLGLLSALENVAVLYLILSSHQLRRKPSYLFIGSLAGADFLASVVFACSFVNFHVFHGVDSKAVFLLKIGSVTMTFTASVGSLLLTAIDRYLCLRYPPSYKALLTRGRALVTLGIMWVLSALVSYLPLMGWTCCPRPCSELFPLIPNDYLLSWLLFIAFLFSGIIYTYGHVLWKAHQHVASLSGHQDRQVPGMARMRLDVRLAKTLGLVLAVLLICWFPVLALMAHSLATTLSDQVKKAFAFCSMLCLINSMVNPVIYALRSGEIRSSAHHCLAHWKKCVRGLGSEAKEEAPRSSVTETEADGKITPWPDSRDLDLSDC
In words: CB2R mediated modulation of cAMP synthesis. Type of experiment: cell-based. Particulars: found through the use of the above described assays (binding and cAMP); CHO cells expressing human CB2R, forskolin-stimulated cAMP. A digest of the protocol:
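EC50 values reflect inhibition of cAMP made in response to 10 uM forskolin (with 1 mM IBMX, 0.25% BSA) over 30 min at 37 °C in human CB2R-expressing CHO cells. The window runs from forskolin alone to 1 uM CP55940; curves fitted with a four-parameter logistic model.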
Take `CC(C)(C(=O)Nc1nc(-c2ccc(Cl)cc2)cs1)S(=O)(=O)c1ccc(Cl)cc1` [2-(4-Chloro-benzenesulfonyl)-N-[4-(4-chloro-phenyl)-thiazol-2-yl]-2-methyl-propionamide]: the agonistic activity entry is reported as “agonistic activity”.

For the molecule `Cn1nc(C(C)(C)C)cc1NC(=O)C1(S(=O)(=O)c2ccc(C(F)(F)F)cc2)CC1` [1-(4-Trifluoromethyl-benzenesulfonyl)-cyclopropanecarboxylic acid (5-tert-butyl-2-methyl-2H-pyrazol-3-yl)-amide], the agonistic activity entry is recorded as “agonistic activity”.

For `CC(C)(C)c1cc(NC(=O)C(C)(C)S(=O)(=O)c2ccc(Cl)cc2F)on1` [N-(3-tert-Butyl-isoxazol-5-yl)-2-(4-chloro-2-fluoro-benzenesulfonyl)-2-methyl-propionamide], the agonistic activity entry is recorded as “agonistic activity”.

Consider `CC(C(=O)Nc1cc(C(C)(C)C)on1)S(=O)(=O)c1ccc(C(F)(F)F)cc1` (stereo not drawn) [N-(5-tert-Butyl-isoxazol-3-yl)-2-(4-trifluoromethyl-benzenesulfonyl)-propionamide], for which the agonistic activity result is listed as “agonistic activity”.

`CCc1sc(NC(=O)C(C)(C)S(=O)(=O)c2ccc(C(F)(F)F)nc2)nc1-c1ccccc1` [N-(5-ethyl-4-phenyl-1,3-thiazol-2-yl)-2-methyl-2-{[6-(trifluoromethyl)pyridin-3-yl]sulfonyl}propanamide]: the agonistic activity result is listed as “agonistic activity”.

Turning to `Cc1ccc(S(=O)(=O)C(C)(C)C(=O)Nc2cccc(C(F)(F)F)n2)cn1` [2-Methyl-2-(6-methyl-pyridine-3-sulfonyl)-N-(6-trifluoromethyl-pyridin-2-yl)-propionamide], the agonistic activity entry is “agonistic activity”.

For the molecule `Cn1nc(C(C)(C)C)cc1NC(=O)C(C)(C)S(=O)(=O)c1ccc(C#N)cc1` [N-(5-tert-Butyl-2-methyl-2H-pyrazol-3-yl)-2-(4-cyano-benzenesulfonyl)-2-methyl-propionamide], the agonistic activity entry is listed as “agonistic activity”.

For the molecule `CC(C)(C(=O)Nc1cc(C(F)(F)F)ccn1)S(=O)(=O)c1ccc(F)cc1F` [2-[(2,4-difluorophenyl)sulfonyl]-2-methyl-N-[4-(trifluoromethyl)pyridin-2-yl]propanamide], the agonistic activity result is recorded as “agonistic activity”.

With `CC(C)(C(=O)Nc1ccc(C(F)(F)F)cn1)S(=O)(=O)c1ccc(Br)cc1` [2-(4-Bromo-benzenesulfonyl)-2-methyl-N-(5-trifluoromethyl-pyridin-2-yl)-propionamide], the agonistic activity entry is given as “agonistic activity”.

Consider `CC(C)(C)c1cccc(NC(=O)C(C)(C)S(=O)(=O)c2ccc(C(F)(F)F)nc2)c1` [N-(3-tert-butylphenyl)-2-methyl-2-{[6-(trifluoromethyl)pyridin-3-yl]sulfonyl}propanamide], for which the agonistic activity entry is recorded as “agonistic activity”.

As for `CC(C)(C)c1nnc(NC(=O)C(C)(C)S(=O)(=O)c2ccc(Cl)cc2F)s1` [N-(5-tert-butyl-1,3,4-thiadiazol-2-yl)-2-[(4-chloro-2-fluorophenyl)sulfonyl]-2-methylpropanamide], the agonistic activity entry was “agonistic activity”.

For the molecule `CC(C)(C(=O)Nc1nc(C2CCCCC2)cs1)S(=O)(=O)c1ccc(Cl)cc1` [2-(4-Chloro-benzenesulfonyl)-N-(4-cyclohexyl-thiazol-2-yl)-2-methyl-propionamide], the agonistic activity result was “agonistic activity”.

Take `Cc1cc(NC(=O)C(C)(C)S(=O)(=O)c2ccc(Cl)cc2)n(-c2ccccc2)n1` [2-(4-Chloro-benzenesulfonyl)-2-methyl-N-(5-methyl-2-phenyl-2H-pyrazol-3-yl)-propionamide]: the agonistic activity result was “agonistic activity”.

For the molecule `CC(C)(C)c1csc(NC(=O)C(C)(C)S(=O)(=O)c2ccc(F)cc2)n1` [N-(4-tert-Butyl-thiazol-2-yl)-2-(4-fluoro-benzenesulfonyl)-2-methyl-propionamide], the agonistic activity entry is recorded as “agonistic activity”.

On to `CCc1ccnc(NC(=O)C(C)(C)S(=O)(=O)c2ccc(Cl)cc2)c1` [2-(4-Chloro-benzenesulfonyl)-N-(4-ethyl-pyridin-2-yl)-2-methyl-propionamide], for which the agonistic activity result was “agonistic activity”.

Turning to `CC(C)(C)c1cc(NC(=O)C(C)(C)S(=O)(=O)c2ccc(F)cc2)on1` [N-(3-tert-Butyl-isoxazol-5-yl)-2-(4-fluoro-benzenesulfonyl)-2-methyl-propionamide], the agonistic activity result was “agonistic activity”.

Consider `Cn1nc(C(C)(C)C)cc1NC(=O)C(C)(C)S(=O)(=O)c1cccc(F)c1` [N-(5-tert-Butyl-2-methyl-2H-pyrazol-3-yl)-2-(3-fluoro-benzenesulfonyl)-2-methyl-propionamide], for which the agonistic activity entry is reported as “agonistic activity”.

`CC(C)(C)c1nnc(NC(=O)C(C)(C)S(=O)(=O)c2ccc(F)cc2F)s1` [N-(5-tert-butyl-1,3,4-thiadiazol-2-yl)-2-[(2,4-difluorophenyl)sulfonyl]-2-methylpropanamide]: the agonistic activity entry is recorded as “agonistic activity”.

In the case of `CC(C)(C(=O)Nc1ccc(C(F)(F)F)c(F)c1)S(=O)(=O)c1ccc(Cl)cc1` [2-[(4-chlorophenyl)sulfonyl]-N-[3-fluoro-4-(trifluoromethyl)phenyl]-2-methylpropanamide], the agonistic activity result was “agonistic activity”.

With `Cc1ccc(S(=O)(=O)C(C)(C)C(=O)Nc2ccc(C(F)(F)F)cn2)c(F)c1` [2-(2-Fluoro-4-methyl-benzenesulfonyl)-2-methyl-N-(5-trifluoromethyl-pyridin-2-yl)-propionamide], the agonistic activity result is on record as “agonistic activity”.

As to `COc1ccc(S(=O)(=O)C(C)(C)C(=O)Nc2cnc3ccccc3c2)cc1` [2-(4-Methoxy-benzenesulfonyl)-2-methyl-N-quinolin-3-yl-propionamide], the agonistic activity result is reported as “agonistic activity”.

For the molecule `CC(C)(C(=O)Nc1cccc(C(F)(F)F)c1)S(=O)(=O)c1ccc(S(C)(=O)=O)cc1` [2-methyl-2-{[4-(methylsulfonyl)phenyl]sulfonyl}-N-[3-(trifluoromethyl)phenyl]propanamide], the agonistic activity result is listed as “agonistic activity”.

In the case of `Cc1ccnc(NC(=O)C(C)(C)S(=O)(=O)c2ccc(Cl)cc2)n1` [2-[(4-chlorophenyl)sulfonyl]-2-methyl-N-(4-methylpyrimidin-2-yl)propanamide], the agonistic activity entry is “agonistic activity”.

`CC(C)c1cnc(NC(=O)C(C)(C)S(=O)(=O)c2ccc(Cl)cc2)s1` [2-(4-Chloro-benzenesulfonyl)-N-(5-isopropyl-thiazol-2-yl)-2-methyl-propionamide]: the agonistic activity entry was “agonistic activity”.

Regarding `CC(C)(C(=O)Nc1nc(-c2ccncc2)cs1)S(=O)(=O)c1ccc(Cl)cc1` [2-(4-Chloro-benzenesulfonyl)-2-methyl-N-(4-pyridin-4-yl-thiazol-2-yl)-propionamide], the agonistic activity result is “agonistic activity”.

Consider `CC(C)(C(=O)Nc1nc(-c2ccccn2)cs1)S(=O)(=O)c1ccc(Cl)cc1` [2-(4-Chloro-benzenesulfonyl)-2-methyl-N-(4-pyridin-2-yl-thiazol-2-yl)-propionamide], for which the agonistic activity entry is on record as “agonistic activity”.

With `CCCc1cc(NC(=O)C(C)(C)S(=O)(=O)c2ccc(C(F)(F)F)nc2)on1` [2-methyl-N-(3-propylisoxazol-5-yl)-2-{[6-(trifluoromethyl)pyridin-3-yl]sulfonyl}propanamide], the agonistic activity result is on record as “agonistic activity”.
